Test results published in patent publication US20250066370A1, “BICYCLIC TRIAZINE DERIVATIVES FOR THE TREATMENT OF CANCER” (DEUTSCHES KREBSFORSCHUNGSZENTRUM, priority 2022, published 2025).
pIC50: −log10 of the molar value.

Experiments:
CDK9/CyclinT1 = CDK9/CyclinT1 (Homo sapiens (Human), UniProt P50750); assay: CDK9/CycT1 high ATP kinase assay (TR-FRET); format: biochemical; details: 2 mM ATP (high ATP); median; read-out: CDK9/CyclinT1, 2 mM ATP (high ATP), IC50 - [mol/l] (median)
Description: CDK9/CycT1-inhibitory activity of compounds of the present invention at a high ATP concentration after preincubation of enzyme and test compounds was quantified employing the CDK9/CycT1 TR-FRET assay as described in the following paragraphs.
Recombinant full-length His-tagged human CDK9 and CycT1, expressed in insect cells and purified by Ni-NTA affinity chromatography, were purchased from Life Technologies (Cat. No PV4131). As substrate for the kinase reaction biotinylated peptide biotin-Ttds-YISPLKSPYKISEG (C-terminus in amide form) was used which can be purchased e.g. form the company JERINI peptide technologies (Berlin, Germany).
For the assay 50 nanoL of a 100 fold concentrated solution of the test compound in DMSO was pipetted into either a black low volume 384 well microtiter plate or a black 1536 well microtiter plate (both Greiner Bio-One, Frickenhausen, Germany), 2 microL of a solution of CDK9/CycT1 in aqueous assay buffer [50 millimol/L Tris/HCl PH 8.0, 10 millimol/L MgCl2, 1.0 millimol/L dithiothreitol, 0.1 millimol/L sodium ortho-vanadate, 0.01% (v/v) Nonidet-P40 (Sigma)] were added and the mixture was incubated for 15 min at 22° C. to allow pre-binding of the test compounds to the enzyme before the start of the kinase reaction. Then the kinase reaction was started by the addition of 3 microL of a solution of adenosine-tri-phosphate (ATP, 3.3 millimol/L=>final conc. in the 5 microL assay volume is 2 millimol/L) and substrate (1.25 micromol/L=>final conc. in the 5 microL assay volume is 0.75 micromol/L) in assay buffer and the resulting mixture was incubated for a reaction time of 25 min at 22° C. The concentration of CDK9/CycT1 was adjusted depending of the activity of the enzyme lot and was chosen appropriate to have the assay in the linear range, typical concentrations were in the range of 0.5 microg/ml. The reaction was stopped by the addition of 3 microL of a solution of TR-FRET detection reagents (0.33 micromol/L streptavidine-XL665 [Cisbio Bioassays, Codolet, France] and 1.67 nanomol/L anti-RB (pSer807/pSer811)-antibody from BD Pharmingen [#558389] and 2 nanomol/L LANCE EU-W1024 labeled anti-mouse IgG antibody [Perkin-Elmer, product no. AD0077]) in an aqueous EDTA-solution (167 millimol/L EDTA, 0.2% (w/v) bovine serum albumin in 100 millimol/L HEPES pH 7.5).
The resulting mixture was incubated 1 h at 22° C. to allow the formation of complex between the phosphorylated biotinylated peptide and the detection reagents. Subsequently the amount of phosphorylated substrate was evaluated by measurement of the resonance energy transfer from the Eu-chelate to the streptavidine-XL. Therefore, the fluorescence emissions at 620 nm and 665 nm after excitation at 350 nm was measured in a TR-FRET reader, e.g. a Pherastar (BMG Labtechnologies, Offenburg, Germany) or a Viewlux (Perkin-Elmer). The ratio of the emissions at 665 nm and at […] was taken as the measure for the amount of phosphorylated substrate. The data were normalised (enzyme reaction without inhibitor=0% inhibition, all other assay components but no enzyme=100% inhibition).

[1] = tested on: MDA-MB-231, human breast cancer cells; assay: Proliferation assay MDA-MB-231 (crystal violet); format: cell-based; details: 96 h, MDA-MB-231 parental cells, 4 days, median, read-out: Prolif-MDA MB-231, IC50 - [mol/l] (median)
Description: Human tumour cells were originally obtained from the American Type Culture Collection (ATCC), or from the Deutsche Sammlung von Mikroorganismen und Zellkulturen (DSMZ, German Collection of Microorganisms and Cell Cultures). Cultivated tumour cells (CAL-120, human breast adenocarcinoma cells, DSMZ ACC-459; MDA-MB-231, human breast cancer cells, ATCC HTB-26) were plated at a density of 4,000 cells/well in a 96-well multitier plate in 200 microL of their respective growth medium supplemented 10% fetal calf serum. After 24 hours, the cells of one plate (zero-point plate) were stained with crystal violet (see below), while the medium of the other plates was supplemented with the test substances in various concentrations (0 micromol/L, as well as in the range of 0.01-10 micromol/L; the final concentration of the solvent dimethyl sulfoxide was adjusted to 0.1%) using a Tecan HP D300 Digital Dispenser. The cells were incubated for 4 days in the presence of test substances. Cell proliferation was determined by staining the cells with crystal violet: the cells were fixed by adding 20 microL/measuring point of an 11% glutaric aldehyde solution for 15 minutes at room temperature. After three washing cycles of the fixed cells with water, the plates were dried at room temperature. The cells were stained by adding 100 microL/measuring point of a 0.1% crystal violet solution (pH 3.0). After three washing cycles of the stained cells with water, the plates were dried at room temperature. The dye was dissolved by adding 100 microL/measuring point of a 10% acetic acid solution. The extinction was determined by photometry at a wavelength of 595 nm. The change of cell number, in percent, was calculated by normalization of the measured values to the extinction values of the zero-point plate (=0%) and the extinction of the untreated (0 μM) cells (=100%). The IC50 values (inhibitory concentration at 50% of maximal effect) were determined by means of a 4 parameter fit.

Chain of CDK9/CyclinT1 (P50750 whole entry): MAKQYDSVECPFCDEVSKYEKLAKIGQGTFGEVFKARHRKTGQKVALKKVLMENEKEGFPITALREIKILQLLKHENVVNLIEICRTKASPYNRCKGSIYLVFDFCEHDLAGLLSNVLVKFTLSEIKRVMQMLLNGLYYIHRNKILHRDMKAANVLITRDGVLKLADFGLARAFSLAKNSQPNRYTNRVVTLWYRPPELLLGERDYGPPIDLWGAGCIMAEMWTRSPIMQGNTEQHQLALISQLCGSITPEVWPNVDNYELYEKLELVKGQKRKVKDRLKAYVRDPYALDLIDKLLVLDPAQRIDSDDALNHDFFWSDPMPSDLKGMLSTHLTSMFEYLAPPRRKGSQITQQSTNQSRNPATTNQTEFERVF
Chain of CDK9/CyclinT1 (O60563 whole entry partner): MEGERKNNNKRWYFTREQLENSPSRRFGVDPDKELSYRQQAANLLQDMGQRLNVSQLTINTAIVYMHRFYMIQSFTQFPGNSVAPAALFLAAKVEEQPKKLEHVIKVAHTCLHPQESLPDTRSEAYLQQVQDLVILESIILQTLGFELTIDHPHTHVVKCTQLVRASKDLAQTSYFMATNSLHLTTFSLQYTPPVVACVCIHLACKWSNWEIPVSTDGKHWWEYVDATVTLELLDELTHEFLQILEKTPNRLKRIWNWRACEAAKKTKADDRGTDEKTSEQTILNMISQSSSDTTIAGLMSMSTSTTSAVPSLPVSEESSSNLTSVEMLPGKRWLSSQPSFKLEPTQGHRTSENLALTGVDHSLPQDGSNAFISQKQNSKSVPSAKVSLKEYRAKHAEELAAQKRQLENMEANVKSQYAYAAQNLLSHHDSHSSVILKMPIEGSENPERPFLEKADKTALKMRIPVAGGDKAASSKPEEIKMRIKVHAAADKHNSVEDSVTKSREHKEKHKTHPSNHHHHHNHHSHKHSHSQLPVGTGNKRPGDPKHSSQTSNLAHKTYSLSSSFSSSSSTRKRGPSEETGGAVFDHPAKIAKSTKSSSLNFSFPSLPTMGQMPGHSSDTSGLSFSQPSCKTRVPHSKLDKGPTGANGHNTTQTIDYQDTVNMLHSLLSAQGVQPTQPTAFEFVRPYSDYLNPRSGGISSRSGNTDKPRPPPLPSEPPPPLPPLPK

Compound | pIC50 (CDK9/CyclinT1) | pIC50 [1]
FC(F)(F)c1ccc(-c2cnc(CNc3nc(N4CCOCC4)nn4c(C(F)(F)F)cnc34)[nH]2)cc1 [Example 7, 2-(morpholin-4-yl)-7-(trifluoromethyl)-N-({5-[4-(trifluoromethyl)phenyl]-1H-imidazol-2-yl}methyl)imidazo[2,1-f][1,2,4]triazin-4-amine] | < 4.70 | 7.04
Cc1ccc(-c2nnc(CNc3nc(N4CCOCC4)nc4c(C(F)(F)F)cnn34)[nH]2)cn1 [Example 22, N-{[5-(6-methylpyridin-3-yl)-4H-1,2,4-triazol-3-yl]methyl}-2-(morpholin-4-yl)-8-(trifluoromethyl)pyrazolo[1,5-a][1,3,5]triazin-4-amine] | 5.72 | 6.54
FC(F)(F)c1ccc(-c2cnc(CNc3nc(N4CCOCC4)nc4c(C(F)(F)F)cnn34)[nH]2)cc1 [Example 9, 2-(morpholin-4-yl)-8-(trifluoromethyl)-N-({5-[4-(trifluoromethyl)phenyl]-1H-imidazol-2-yl}methyl)pyrazolo[1,5-a][1,3,5]triazin-4-amine] | < 4.72 | 6.72
